Assay results from patent US20230357320A1, “HELICAL STAPLED PEPTIDES AND USES THEREOF” (FOG PHARMACEUTICALS, INC., priority 2020, published 2023).
Read-outs that look alike come from different tables or passages of the source. Starred links: 1 amine or outer side, 2 acyl side, 3 side chain; linkers in the order of their positions; H or OH if unused. Positions of bridges follow the written chain, without caps; N, C: chain ends. Non-standard residues stand in square brackets, D forms with d. Residues, ends and D or L forms follow the SMILES beside them. X1 = O=C([C@]1(CC=[*:3])CCCN1[*:1])[*:2]; Ala(cPr) = N[C@@H](CC1CC1)C(=O)O; S5 = C=CCCC[C@](C)(N)C(=O)O; Nle = CCCC[C@H](N)C(=O)O

Assays:
ERβ LBD = target: T1, ERβ LBD (Homo sapiens, UniProt Q92731); assay: Competition fluorescence polarization (FP) binding assay with FITC-ERL4 probe; conditions: read-out: EC50
T1 construct: pET28a+ vector containing ERβ LBD (residues from 261 to 500) along with an N-terminal His6-yBBr-TEV tag; His6 (N); yBBr (N); TEV cleavage site (N); made in house; host or cells: E. coli BL21(DE3) pLysS
Protocol: In addition to the PAMPA assay, to study the affinity of the first-generation ProLock™ stapled peptides to the Estrogen receptor p ligand-binding domain (ERβ LBD), a fluorescence polarization (FP) binding assay in competition format was used in the presence of the endogenous ERβ LBD ligand estradiol. Competition Fluorescence Polarization (FP) assay was performed on the peptides to determine their half-maximal effective concentration (EC50). To do this, FITC labeled ERL4 peptide (FITC-βAla-His-Pro-Leu-Leu-Nle-Arg-Leu-Leu-Leu-Ser-Pro-CONH2) was synthesized to be used as a fluorescence probe based on existing literature (Fuchs et al., Journal of the American Chemical Society 2013, 135 (11), 4364-4371). Direct FP was performed in black 384-well plates (Corning). The final volume of each assay well was 40 μL with constant concentration of FITC labeled ERL4 peptide (10 nM) and variable concentrations of ERβ LBD protein.
ERβ LBD expression and purification was performed as follows. BL21(DE3) pLysS E. coli cells were transformed with a pET28a+ vector containing ERβ LBD (residues from 261 to 500) along with an N-terminal His6-yBBr-TEV tag. An overnight culture in 10 mL of TB media containing 50 μg/mL kanamycin was prepared from a single bacterial colony. The overnight culture was subsequently added to 1 liter of autoclaved TB media containing 50 μg/mL kanamycin and shaken at 37° C. until an OD of 0.6-0.8 was reached. IPTG was added to the culture and left shaking for 6 hours. Bacterial culture was pelleted and resuspended in lysis buffer. Resuspended bacterial culture was incubated at 0° C. for 10 minutes before sonication at 65% amplitude with 10-sec cycles using a Branson Sonifier. The lysate was then cleared by centrifugation at 8000×g for 20 min. […] The expected molecular weight of the ERβ LBD protein is 30.8 KDa, which molecular weight was confirmed by SDS PAGE analysis. Purified ERβ LBD was concentrated to 90 μM and was stored at −80° C. buffer.
Competition FP assays were also employed. These were performed in black 384-well plates (Corning). The final volume of each assay well was 80 μL containing constant concentrations of estradiol (1 μM) and FITC labeled ERL4 (10 nM). The ERβ LBD concentration was held constant (200 nM) while varying the concentration of ProLock stapled peptides (3-fold dilution from 10 μM). Upon addition of samples to each well, the plate was centrifuged for 10 seconds at 3000 rpm and incubated at 4° C. for 1 hour. FP measurements were performed at room temperature with excitation and emission wavelengths at 485 and 535 nm using a Clariostar microplate reader (BMG Labtech). Each plate had high and low polarization samples, which are used to normalize the assay data. The competition FP results were analyzed by Prism 7 (GraphPad). The non-linear regression analysis of the data was used to determine the half-maximal effective concentration (EC50) of ProLock stapled peptides. […] The normalized FP values shown in FIG. 6 are mean±S.E.M of at least four independent replicates.

[1] = for % Retention: PAMPA
Protocol: (§1) The synthesized peptides were first analyzed with a PAMPA assay. […] The PAMPA plate system is composed of two compartments, donor and acceptor, which are separated by a phospholipid-infused membrane. The amount of compound transferred from the acceptor well into the donor well over a period of incubation time is used to determine the passive permeability of a compound.
(§2) The two plates are separated by a membrane infused with phospholipids. […] The amount of compound transferred from one well to the other is usually quantified by reverse-phase HPLC-mass spectrometry.
(§3) Briefly, all PAMPA assays were performed using the commercially available PAMPA plate system from Corning, which uses a proprietary membrane composed of structured phospholipids. […] To prevent nonspecific peptide loss to the plates, the acceptor wells of the Corning PAMPA plates were blocked overnight with 5% nonfat milk with 0.1% Triton X-100 in Dulbecco's phosphate buffer saline (DPBS) at pH=7.4, followed by extensive washing prior to assays. The donor wells and membrane itself were not exposed to the milk/Triton solution. […] The PAMPA experiments described herein were performed using plates from Corning Lot #9112010, Lot #9112011 and Lot #7317005 (Corning Inc., Corning, New York, USA).
(§4) To set up PAMPA assays, the PAMPA plate system was equilibrated at room temperature for at least an hour before setting up the assay. The acceptor plate preincubated with milk blocking solution was washed with water, followed by DPBS buffer. 300 μL of 5% DMSO in DPBS at pH=7.4 was added to the pre-blocked acceptor plate, and 200 μL of 10M compounds made with 5% DMSO in DPBS at pH=7.4 was added to the donor plate. The donor plate with a lid was then carefully inserted into the acceptor plate with no bubbles formed at the interface of donor and acceptor plates. The PAMPA assay plate was covered with aluminum foil and placed in a 37° C. incubator for 5 hours. 10 M input solution of all compounds was diluted 20-fold to a final acetonitrile concentration of 50% before analyzing by reverse-phase HPLC and Q-Exactive plus mass spectrometer. At the end of 5 hours, PAMPA donor and acceptor plates were separated and diluted 20-fold and 2-fold respectively to a final acetonitrile concentration of 50%. The diluted solutions of PAMPA donor and acceptor plates were analyzed by reverse-phase HPLC and Q-Exactive plus mass spectrometer.
(§5) Pe measures the passive permeability of each compound tested in the PAMPA assay, whereas % retention measures the amount of compound retained in solution at the end of the assay compared to the input sample.

[2] = CHI Log D measurement (chromatographic hydrophobicity index); conditions: pH 7.4
Protocol: Finally, to measure hydrophobicity, a CHI Log D measurement assay was employed. […] The retention time measurements were performed using reverse-phase HPLC and Q-Exactive mass spectrometer with Phenomenex Gemini C-18 column (3 uM, 50×3 mm). The reverse-phase chromatography was performed using a gradient of 10 mM ammonium acetate at pH=7.4 and acetonitrile solvents. Using the identical solvent setup, gradient, and flowrate, ProLock stapled peptides were injected onto the column to determine the tR of peptides. Using the calibration curve shown in FIG. 7, tR is converted into CHI. CHI was converted into CHI Log D using the following equation.

in vitro = assay: in vitro; design: dose or concentration left out as unconfirmed; conditions: PAMPA, pH 7.4, PAMPA Pe
Protocol: as §1, §2, §3, §4, §5

[3] = Table 4, binding to ER LBD, estradiol 1 μM, FITC-ERL4 10 nM, ERβ LBD 200 nM, mean ± S.E.M, at least four replicates
[4] = reverse-phase HPLC, Phenomenex Gemini C-18 column
[5] = Table 2, binding to ER LBD, estradiol 1 μM, FITC-ERL4 10 nM, ERβ LBD 200 nM, mean ± S.E.M, at least four replicates
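Wherever % Retention is given: Phospholipid-membrane PAMPA, donor and acceptor in DPBS pH 7.4 with 5% DMSO, 37 °C for 5 h, compound in each well quantified by reverse-phase HPLC-MS.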
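Wherever PAMPA Pe (text) is given: Phospholipid-membrane PAMPA, donor and acceptor in DPBS pH 7.4 with 5% DMSO, 37 °C for 5 h, compound in each well quantified by reverse-phase HPLC-MS.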
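Wherever PAMPA Pe is given: Phospholipid-membrane PAMPA, donor and acceptor in DPBS pH 7.4 with 5% DMSO, 37 °C for 5 h, compound in each well quantified by reverse-phase HPLC-MS.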
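Wherever Papp is given: Phospholipid-membrane PAMPA, donor and acceptor in DPBS pH 7.4 with 5% DMSO, 37 °C for 5 h, compound in each well quantified by reverse-phase HPLC-MS.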

SMILES	EC50 (ERβ LBD; [3]) [nM]	% Retention [1] [%]	chromatographic logD [2]	Papp at 5 h (in vitro) [×10⁻⁶ cm/s]	PAMPA Pe [1]	EC50 (ERβ LBD; binding towards the ERβ LBD) [nM]	chromatographic logD [2, 4]	EC50 (ERβ LBD; [5]) [nM]	PAMPA Pe (text) [1]
CNC(=O)[C@H](CC(=O)O)NC(=O)[C@H](CCC(N)=O)NC(=O)[C@H](CC(C)C)NC(=O)[C@H](CC(C)C)NC(=O)[C@H](Cc1ccc(O)cc1)NC(=O)[C@]1(C)CCCC=CC[C@]2(CCCN2C(C)=O)C(=O)N[C@@H](C)C(=O)N[C@@H](CC(C)C)C(=O)N1 (single isomer, unassigned) [PLL7-8, Ac-PL3-Ala-Leu-S5-Tyr-Leu-Leu-Gln-Asp-NHMe]	> 10000	107 ± 3	1.7	1.4 ± 0.3	–	–	–	–	–
CNC(=O)[C@H](CC(N)=O)NC(=O)[C@H](CC(C)C)NC(=O)[C@H](CC(C)C)NC(=O)[C@H](Cc1c[nH]cn1)NC(=O)[C@]1(C)CCCC=CC[C@]2(CCCN2C(C)=O)C(=O)N[C@@H](C)C(=O)N[C@@H](CC(C)C)C(=O)N1 (single isomer, unassigned) [PLL7-20, Ac-PL3-Ala-Leu-S5-His-Leu-Leu-Asn-NHMe]	> 10000	104 ± 2	2.1	1.3 ± 0.1	1.3 ± 0.1 (×10^−6) cm/sec	–	–	–	–
CC[C@H](C)[C@@H]1NC(=O)[C@]2(CC=CCCC[C@@](C)(C(=O)N[C@@H](CCCNC(=N)N)C(=O)N[C@@H](CC(C)C)C(=O)N[C@@H](CC(C)C)C(=O)N[C@@H](CCC(N)=O)C(=O)N[C@@H](Cc3ccc(O)cc3)C(=O)NC)NC(=O)[C@H](CC(C)C)NC1=O)CCCN2C(C)=O [PLL4-1, Ac-PL3-Ile-Leu-S5-Arg-Leu-Leu-Gln-Tyr-NHMe] (Ac-[X1]IL[S5]RLLQY-NHMe; staple 1-4)	–	75 ± 2	–	≤ 0.1	–	200	2.9	–	–
CNC(=O)[C@H](Cc1ccc(O)cc1)NC(=O)[C@H](CC(C)C)NC(=O)[C@H](CC(C)C)NC(=O)[C@H](Cc1c[nH]cn1)NC(=O)[C@H](CCCNC(=N)N)NC(=O)[C@]1(C)CCCC=CC[C@]2(CCCN2C(C)=O)C(=O)N[C@@H](CC(C)C)C(=O)N[C@@H](CC(C)C)C(=O)N1 [PLL4-2, Ac-PL3-Leu-Leu-S5-Arg-His-Leu-Leu-Tyr-NHMe] (Ac-[X1]LL[S5]RHLLY-NHMe; staple 1-4)	–	43 ± 2	–	≤ 0.1	–	400	2.7	–	–
CNC(=O)[C@H](CC(=O)O)NC(=O)[C@H](CC(C)C)NC(=O)[C@H](CC(C)C)NC(=O)[C@H](Cc1ccc(O)cc1)NC(=O)[C@H](CCCNC(=N)N)NC(=O)[C@]1(C)CCCC=CC[C@]2(CCCN2C(C)=O)C(=O)N[C@@H](C)C(=O)N[C@@H](CC(C)C)C(=O)N1 [PLL4-4, Ac-PL3-Ala-Leu-S5-Arg-Tyr-Leu-Leu-Asp-NHMe] (Ac-[X1]AL[S5]RYLLD-NHMe; staple 1-4)	–	71 ± 2	–	0.5 ± 0.1	–	–	2.3	7900 ± 400	0.3-0.7 ×10^−6 cm/sec
CNC(=O)[C@H](CC(=O)O)NC(=O)[C@H](CC(C)C)NC(=O)[C@H](CC(C)C)NC(=O)[C@H](Cc1ccc(O)cc1)NC(=O)[C@]1(C)CCCC=CC[C@]2(CCCN2C(C)=O)C(=O)N[C@@H](CC(C)C)C(=O)N[C@@H](CC(C)C)C(=O)N1 [PLL4-10, Ac-PL3-Leu-Leu-S5-Tyr-Leu-Leu-Asp-NHMe] (Ac-[X1]LL[S5]YLLD-NHMe; staple 1-4)	–	63 ± 4	–	0.6 ± 0.1	0.6 ± 0.1 (×10^−6) cm/sec	1500	2.4	–	0.3-0.7 ×10^−6 cm/sec
CCCC[C@H](NC(=O)[C@]1(C)CCCC=CC[C@]2(CCCN2C(C)=O)C(=O)N[C@@H](CC(C)C)C(=O)N[C@@H](CCCNC(=N)N)C(=O)N1)C(=O)N[C@@H](CC(C)C)C(=O)N[C@@H](C)C(=O)N[C@@H](Cc1ccc(O)cc1)C(=O)NC [PLL4-12, Ac-PL3-Leu-Arg-S5-Nle-Leu-Ala-Tyr-NHMe] (Ac-[X1]LR[S5][Nle]LAY-NHMe; staple 1-4)	–	42 ± 2	–	≤ 0.1	–	–	2.7	7500 ± 400	–
CNC(=O)[C@H](CC(=O)O)NC(=O)[C@H](CC(=O)O)NC(=O)[C@H](CC(C)C)NC(=O)[C@H](CC(C)C)NC(=O)[C@H](Cc1ccc(O)cc1)NC(=O)[C@]1(C)CCCC=CC[C@]2(CCCN2C(C)=O)C(=O)N[C@@H](CC(C)C)C(=O)N[C@@H](CC(C)C)C(=O)N1 [PLL5-2, Ac-PL3-Leu-Leu-S5-Tyr-Leu-Leu-Asp-Asp-NHMe] (Ac-[X1]LL[S5]YLLDD-NHMe; staple 1-4)	–	97 ± 2	–	1.6 ± 0.1	1.6 ± 0.1 (×10^−6) cm/sec	800 to 1300	1.7	–	–
CC[C@H](C)[C@@H]1NC(=O)[C@]2(CC=CCCC[C@@](C)(C(=O)N[C@@H](Cc3ccc(O)cc3)C(=O)N[C@@H](CC(C)C)C(=O)N[C@@H](CC(C)C)C(=O)N[C@@H](CC(=O)O)C(=O)NC)NC(=O)[C@H](CC(C)C)NC1=O)CCCN2C(C)=O [PLL5-4, Ac-PL3-Ile-Leu-S5-Tyr-Leu-Leu-Asp-NHMe] (Ac-[X1]IL[S5]YLLD-NHMe; staple 1-4)	1300 ± 100	100 ± 1	–	0.3 ± 0.1	–	–	2.4	–	–
CNC(=O)[C@H](CC(=O)O)NC(=O)[C@H](CC(C)C)NC(=O)[C@H](CC(C)C)NC(=O)[C@H](CCCNC(=N)N)NC(=O)[C@]1(C)CCCC=CC[C@]2(CCCN2C(C)=O)C(=O)N[C@@H](CC(C)C)C(=O)N[C@@H](CC(C)C)C(=O)N1 [PLL5-8, Ac-PL3-Leu-Leu-S5-Arg-Leu-Leu-Asp-NHMe] (Ac-[X1]LL[S5]RLLD-NHMe; staple 1-4)	7900 ± 400	104 ± 3	–	0.9 ± 0.2	–	–	2.1	–	–
CNC(=O)[C@@H](NC(=O)[C@H](CC(C)C)NC(=O)[C@H](CC(C)C)NC(=O)[C@H](Cc1ccc(O)cc1)NC(=O)[C@]1(C)CCCC=CC[C@]2(CCCN2C(C)=O)C(=O)N[C@@H](CC(C)C)C(=O)N[C@@H](CC(C)C)C(=O)N1)[C@@H](C)O [PLL5-10, Ac-PL3-Leu-Leu-S5-Tyr-Leu-Leu-Thr-NHMe] (Ac-[X1]LL[S5]YLLT-NHMe; staple 1-4)	1500 ± 200	34 ± 0	–	≤ 0.1	–	–	3.8	–	–
CNC(=O)[C@H](CC(=O)O)NC(=O)[C@H](CCC(N)=O)NC(=O)[C@H](CC(C)C)NC(=O)[C@H](CC(C)C)NC(=O)[C@H](CCCNC(=N)N)NC(=O)[C@]1(C)CCCC=CC[C@]2(CCCN2C(C)=O)C(=O)N[C@@H](CC2CC2)C(=O)N[C@@H](CC(C)C)C(=O)N1 [PLL7-5, Ac-PL3-Cpa-Leu-S5-Arg-Leu-Leu-Gln-Asp-NHMe] (Ac-[X1][Ala(cPr)]L[S5]RLLQD-NHMe; staple 1-4)	4100 ± 300	109 ± 2	–	0.8 ± 0.2	–	–	2	–	–
